Measured values: PubChem BioAssay AID1224920 (Broad Institute, 2016)
“And” between values parts separate entries of the source, which are not always exact repeats. Equal entries are not always repeated. The source made the active and inactive calls.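 How the source made its calls: active means IC50 no higher than ten times the top tested dose; inconclusive means flat fit with 30 to 70% inhibition, or poor fit; inactive means IC50 above ten times the top dose.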

Test system: Clostridium difficile clinical isolate growth, OD600, 24 h
Experiment: growth modulation of Clostridium difficile isolate – OD600, 9-point, retest, dose response (AID 1224920);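 further: inhibitors lower culture turbidity so OD600 falls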

| SMILES | IC50 |
| --- | --- |
| COc1ccc(C#Cc2ccc([C@H]3[C@@H](CO)N4CCCCN(Cc5ccccc5F)C[C@H]34)cc2)cc1 | 4.95 µM |
| C(=C\c1ccc(C2[C@@H]3CN(Cc4cocn4)C[C@H]2N3)cc1)/c1ccccc1 (stereo partly drawn) | 11 µM |
| COc1ccc(S(=O)(=O)N2CCCCN3[C@@H](CO)[C@@H](c4ccc(C#CCC(C)C)cc4)[C@@H]3C2)cc1 | 13.6 µM |
| COc1ccccc1NC(=O)N1CCCCN2[C@H](CO)[C@H](c3ccc(-c4ccc(C)cc4)cc3)[C@H]2C1 | 14.5 µM |
| COc1ccc(-c2ccc(C3[C@H]4CNC[C@@H]3N4Cc3cc(OC)cc(OC)c3)cc2)cc1 (stereo partly drawn) | 11.1 µM |
| O=C(Nc1ccccc1F)N1C[C@@H]2N[C@H](C1)C2c1ccc(/C=C/c2ccccc2)cc1 (stereo partly drawn) | 12.5 µM |
| COc1cccc(S(=O)(=O)N2C[C@@H]3N[C@H](C2)C3c2ccc(/C=C/c3ccccc3)cc2)c1 (stereo partly drawn) | 12.7 µM |
| Cc1cccc(-c2ccc(C3[C@H]4CNC[C@@H]3N4C(=O)Nc3ccccc3Cl)cc2)c1 (stereo partly drawn) | 33.2 µM |
| Cc1ccccc1-c1ccc([C@H]2[C@@H](CO)N3CCCCN(C(=O)Nc4cccc(F)c4)C[C@H]23)cc1 | 10.6 µM |
| O=C(c1cccc(F)c1)N1CCCCN2[C@H](CO)[C@H](c3ccc(/C=C/c4ccccc4)cc3)[C@H]2C1 | 140 µM |
| OC[C@@H]1Nc2ccc(C#Cc3cccc(F)c3)cc2[C@@H]2NCC[C@H]12 | 42.8 µM |
| COc1ccccc1NC(=O)N1C[C@@H]2N[C@H](C1)C2c1ccc(/C=C/c2ccccc2)cc1 (stereo partly drawn) | 10.7 µM |
| C(=C\c1ccc(C2[C@@H]3CN(Cc4nccs4)C[C@H]2N3)cc1)/c1ccccc1 (stereo partly drawn) | 16.7 µM and 67.5 µM |
| COc1ccc(C#Cc2ccc([C@H]3[C@H](CO)N4CCCCN(C(=O)Nc5ccc(F)cc5)C[C@@H]34)cc2)cc1 | 5.67 µM |
| OC[C@@H]1[C@H](c2ccc(/C=C/c3ccccc3)cc2)[C@H]2CN(CCC(F)(F)F)CCCCN12 | 28.7 µM |
| COc1ccccc1S(=O)(=O)N1[C@@H]2CNC[C@H]1C2c1ccc(/C=C/c2ccccc2)cc1 (stereo partly drawn) | 63.2 µM |
| Cc1ccccc1-c1ccc(C2[C@@H]3CN(S(=O)(=O)Cc4ccccc4)C[C@H]2N3)cc1 (stereo partly drawn) | 33.8 µM |

| SMILES | IC50 |
| --- | --- |
| O=C(C[C@H]1CC[C@H]2[C@@H](COC[C@H](O)CN2C(=O)Nc2ccc(C(F)(F)F)cc2)O1)NC1Cc2ccccc2C1 | 3.82 µM |
| COc1ccccc1CN1CC[C@@H]2[C@H](CO)Nc3ccc(C#Cc4ccccc4)cc3[C@@H]21 | 31.2 µM |
| Cc1ccc(-c2ccc([C@@H]3[C@H](CO)N4CCCCN(C(=O)c5ccc(F)cc5)C[C@@H]34)cc2)cc1 | 24.3 µM |
| FC(F)(F)c1cccc(CN2[C@@H]3CNC[C@H]2[C@@H]3c2ccc(-c3cccnc3)cc2)c1 | 103 µM |
| Cc1cccc(-c2ccc([C@H]3[C@H](CO)N4CCCCN(CCC(F)(F)F)C[C@@H]34)cc2)c1 | 68.9 µM |
| COc1ccc(C#Cc2ccc([C@H]3[C@H](CO)N4CCCCN(C(=O)Nc5cccc(F)c5)C[C@@H]34)cc2)cc1 | 20.9 µM |
| COc1ccc(-c2ccc(C3[C@H]4CNC[C@@H]3N4C(=O)Nc3ccc(C(F)(F)F)cc3)cc2)cc1 (stereo partly drawn) | 65.7 µM and 10.6 µM |
| Cc1cccc(-c2ccc(C3[C@@H]4CN(Cc5ccccc5F)C[C@H]3N4)cc2)c1 (stereo partly drawn) | 6.22 µM |
| O=C(C[C@@H]1CC[C@@H]2[C@H](COC[C@H](O)CN2C(=O)Nc2ccc(C(F)(F)F)cc2)O1)NCC1CCCCC1 | 7.67 µM |
| O=C(Nc1cccc(F)c1)N1CCCCN2[C@@H](CO)[C@@H](c3ccc(C#CC4CC4)cc3)[C@@H]2C1 | 35.4 µM |
| N#Cc1ccc(-c2ccc([C@@H]3[C@H]4CNC[C@@H]3N4Cc3ccc4c(c3)OCO4)cc2)cc1 | 102 µM |
| O=C(c1cnccn1)N1CC(=O)N2[C@H](C1)[C@@H](c1ccc(C#CCc3ccccc3)cc1)[C@@H]2CO | > 240 µM (inactive) |
| O=C(C[C@H]1CC[C@H]2[C@@H](COC[C@@H](O)CN2C(=O)Nc2ccc(C(F)(F)F)cc2)O1)NCC1CCCCC1 | 6.01 µM |
| COc1cccc(-c2ccc(C3[C@H]4CNC[C@@H]3N4Cc3ccc4c(c3)OCO4)cc2)c1 (stereo partly drawn) | 30.1 µM |
| COc1ccc(C#Cc2ccc([C@H]3[C@H](CO)N4CCCCN(Cc5ccccc5F)C[C@@H]34)cc2)cc1 | 11 µM |
| O=C(C[C@H]1CC[C@H]2[C@@H](COC[C@@H](O)CN2C(=O)Nc2cc(Cl)cc(Cl)c2)O1)N1CCOCC1 | 29.1 µM |
